Numbered stars: 1 amine (or outer) side, 2 acyl side, 3 side chain; on linkers, the order of the positions; unused ones are H or OH. Square brackets hold non-standard residues; d marks the D form. Side chains are listed from the residue outwards. Peptide text beside a SMILES is read from it. * marks the point of attachment. C20 diacid = O=C(O)CCCCCCCCCCCCCCCCCCC(=O)*; γGlu = O=C(O)[C@H](CCC(=O)[*:2])N[*:1]; AEEA = NCCOCCOCC(=O)O; Aib = CC(C)(N)C(=O)O

The target of one data set is GLP1R (Homo sapiens, UniProt P43220). Briefly: hGLP1R potency, cAMP accumulation in CHO-K1 cells stably overexpressing hGLP1R. The format is cell-based. The settings on record: for EC50: cAMP accumulation, CHO-K1 cells overexpressing hGLP1R, read-out: hGLP1R pEC50 (converted); for SCTR EC50/GLP1R EC50 ratio: selectivity for hGLP1R over hSCTR, cAMP accumulation in CHO-K1 cells. Further details: host or cells: CHO-K1. A digest of the protocol: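 TR-FRET cAMP read-out, one hour after reagent addition, following 30 min compound exposure at RT in DPBS/0.05% casein/0.5 mM IBMX. Crude peptides: 5 points, 10-fold steps, n=1. Purified peptides: 11 points, 3-fold steps, n=2. EC50 fitted with a variable-slope sigmoid.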
Chain of GLP1R (P43220 24-463): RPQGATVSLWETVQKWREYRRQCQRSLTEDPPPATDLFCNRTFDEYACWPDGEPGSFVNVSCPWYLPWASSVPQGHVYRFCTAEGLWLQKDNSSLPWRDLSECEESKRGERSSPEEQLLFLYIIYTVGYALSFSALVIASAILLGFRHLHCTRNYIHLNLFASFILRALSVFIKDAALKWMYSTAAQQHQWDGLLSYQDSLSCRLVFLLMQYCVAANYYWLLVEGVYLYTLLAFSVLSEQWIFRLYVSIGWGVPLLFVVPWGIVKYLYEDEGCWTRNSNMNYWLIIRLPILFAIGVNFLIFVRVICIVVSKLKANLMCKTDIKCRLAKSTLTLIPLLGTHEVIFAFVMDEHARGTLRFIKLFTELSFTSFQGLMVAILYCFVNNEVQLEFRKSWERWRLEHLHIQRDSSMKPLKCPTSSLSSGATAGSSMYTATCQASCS

The nature of data set [1]: Turbidity of crude library peptides (absorbance at 600 nm). The settings on record: Physical stability of peptides. It counts as physicochemical. The method in brief: (§1)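 Fibril formation is scored as average ThT fluorescence from duplicate samples monitored for 72 h at 40° C with shaking stress. Turbidity is the absorbance at 600 nm taken before heating. Peptide concentration was 267 μM at pH 4.0 or pH 7.0.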

The target of another data set is SCTR (Homo sapiens, UniProt P47872). Briefly: hSCTR potency, cAMP accumulation in CHO-K1 cells stably overexpressing hSCTR. It counts as cell-based. Further details: alternatively Euroscreen ES-712-AF; FAST-0161L; host or cells: CHO-K1. The settings on record: cAMP accumulation, CHO-K1 cells overexpressing hSCTR; read-out: hSCTR pEC50 (converted). A digest of the protocol:
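CHO-K1/hSCTR cells; DPBS + 0.05% casein + 0.5 mM IBMX; 30 min RT stimulation; cAMP by TR-FRET read at 1 h. Crude peptides: 5-point 10-fold dilutions, n=1. Purified: 11-point 3-fold dilutions, n=2. EC50 via variable-slope fit.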

Data set [2] in a line: Fibril formation of crude library peptides (Thioflavin T). The conditions noted are these: Physical stability of peptides. It counts as physicochemical. Further details: key: average ThT fluorescence emission at 480 nm (ex 450 nm), raw units. A digest of the protocol: as §1

Chain of SCTR (P47872 23-440): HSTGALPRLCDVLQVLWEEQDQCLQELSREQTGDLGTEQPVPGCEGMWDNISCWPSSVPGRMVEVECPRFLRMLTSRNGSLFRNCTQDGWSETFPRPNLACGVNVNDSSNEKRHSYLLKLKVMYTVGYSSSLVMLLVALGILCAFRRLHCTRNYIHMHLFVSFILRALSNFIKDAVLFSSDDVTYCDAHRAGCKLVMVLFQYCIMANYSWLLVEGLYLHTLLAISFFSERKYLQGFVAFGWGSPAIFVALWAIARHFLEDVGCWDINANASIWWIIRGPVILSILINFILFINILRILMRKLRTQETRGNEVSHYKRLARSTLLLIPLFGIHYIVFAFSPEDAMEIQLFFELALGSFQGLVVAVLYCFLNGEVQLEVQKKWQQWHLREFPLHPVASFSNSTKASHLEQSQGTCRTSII

Regarding `CC(C)C[C@H](NC(=O)[C@H](Cc1c[nH]c2ccccc12)NC(=O)[C@H](CCCNC(=N)N)NC(=O)[C@H](CCC(N)=O)NC(=O)[C@H](CC(C)C)NC(=O)C(C)(C)NC(=O)[C@H](C)NC(=O)[C@H](CCC(=O)O)NC(=O)[C@H](CCC(=O)O)NC(=O)[C@H](CCCCNC(=O)COCCOCCNC(=O)COCCOCCNC(=O)CC[C@H](NC(=O)CCCCCCCCCCCCCCCCCCC(=O)O)C(=O)O)NC(=O)[C@H](CC(C)C)NC(=O)[C@H](Cc1ccc(O)cc1)NC(=O)[C@H](CO)NC(=O)[C@@H](NC(=O)[C@H](CC(=O)O)NC(=O)[C@H](CO)NC(=O)[C@@H](NC(=O)[C@H](Cc1ccccc1)NC(=O)[C@@H](NC(=O)CNC(=O)[C@H](CCC(=O)O)NC(=O)C(C)(C)NC(=O)[C@@H](N)Cc1c[nH]cn1)[C@@H](C)O)[C@@H](C)O)C(C)C)C(=O)N[C@@H](CCC(=O)O)C(=O)N[C@@H](Cc1c[nH]cn1)C(=O)N[C@@H](CC(C)C)C(=O)N[C@H](C(N)=O)C(C)C` [compound 135] (H-H[Aib]EGTFTSDVSYLK([AEEA-AEEA-γGlu-C20 diacid])EEA[Aib]LQRWLEHLV-NH2), on GLP1R, the EC50 was 0.00501 nM and the “SCTR EC50/GLP1R EC50 ratio” value was 22241. For the same compound, the “Turbidity (pH 7)” value in data set [1] was determined as 0.09. In addition, the EC50 at SCTR is 126 nM. This compound also showed a Fibril formation in data set [2] of 4491.

With `CC(C)C[C@H](NC(=O)[C@H](Cc1ccccc1)NC(=O)[C@H](CCCNC(=N)N)NC(=O)[C@H](CCC(N)=O)NC(=O)[C@H](CC(C)C)NC(=O)C(C)(C)NC(=O)[C@H](C)NC(=O)[C@H](CCC(=O)O)NC(=O)[C@H](CCC(=O)O)NC(=O)[C@H](CCCCNC(=O)COCCOCCNC(=O)COCCOCCNC(=O)CC[C@H](NC(=O)CCCCCCCCCCCCCCCCCCC(=O)O)C(=O)O)NC(=O)[C@H](CC(C)C)NC(=O)[C@H](CC(N)=O)NC(=O)[C@H](CO)NC(=O)[C@@H](NC(=O)[C@H](CC(=O)O)NC(=O)[C@H](CO)NC(=O)[C@@H](NC(=O)[C@H](Cc1ccccc1)NC(=O)[C@@H](NC(=O)CNC(=O)[C@H](CCC(=O)O)NC(=O)C(C)(C)NC(=O)[C@@H](N)Cc1c[nH]cn1)[C@@H](C)O)[C@@H](C)O)C(C)C)C(=O)N[C@@H](CCC(=O)O)C(=O)N[C@@H](Cc1c[nH]cn1)C(=O)N[C@@H](CC(C)C)C(=O)N[C@H](C(N)=O)C(C)C` [compound 136] (H-H[Aib]EGTFTSDVSNLK([AEEA-AEEA-γGlu-C20 diacid])EEA[Aib]LQRFLEHLV-NH2), at GLP1R, the EC50 is 0.0126 nM and the “SCTR EC50/GLP1R EC50 ratio” value amounted to 857. Moreover, in data set [1], the “Turbidity (pH 7)” value was found to be 0.08. Moreover, the EC50 at SCTR was 12.6 nM. Moreover, the Fibril formation in data set [2] was determined as 3353.

For the compound `CC(C)C[C@H](NC(=O)[C@H](C)NC(=O)[C@H](C)NC(=O)[C@H](CCC(=O)O)NC(=O)[C@H](CCC(=O)O)NC(=O)[C@H](CCCCNC(=O)COCCOCCNC(=O)COCCOCCNC(=O)CC[C@H](NC(=O)CCCCCCCCCCCCCCCCCCC(=O)O)C(=O)O)NC(=O)[C@H](CC(C)C)NC(=O)[C@H](Cc1ccc(O)cc1)NC(=O)[C@H](CO)NC(=O)[C@@H](NC(=O)[C@H](CC(=O)O)NC(=O)[C@H](CO)NC(=O)[C@@H](NC(=O)[C@H](Cc1ccccc1)NC(=O)[C@@H](NC(=O)CNC(=O)[C@H](CCC(=O)O)NC(=O)C(C)(C)NC(=O)[C@@H](N)Cc1c[nH]cn1)[C@@H](C)O)[C@@H](C)O)C(C)C)C(=O)N[C@@H](CCC(N)=O)C(=O)N[C@@H](CCCNC(=N)N)C(=O)N[C@@H](Cc1ccccc1)C(=O)N[C@@H](CC(C)C)C(=O)N[C@@H](CCC(=O)O)C(=O)N[C@@H](Cc1c[nH]cn1)C(=O)N[C@@H](CC(C)C)C(=O)N[C@H](C(N)=O)C(C)C` [compound 137] (H-H[Aib]EGTFTSDVSYLK([AEEA-AEEA-γGlu-C20 diacid])EEAALQRFLEHLV-NH2), at GLP1R, the EC50 was 0.00794 nM and the “SCTR EC50/GLP1R EC50 ratio” value is 9970. The “Turbidity (pH 7)” value in data set [1] is reported as 0.09. Moreover, the EC50 at SCTR is 79.4 nM. Further, the Fibril formation in data set [2] was found to be 4019.

In the case of `CC(C)C[C@H](NC(=O)[C@H](Cc1ccccc1)NC(=O)[C@H](CCCNC(=N)N)NC(=O)[C@H](CCC(N)=O)NC(=O)[C@H](CC(C)C)NC(=O)C(C)(C)NC(=O)[C@H](C)NC(=O)[C@H](CCC(=O)O)NC(=O)[C@H](CCC(=O)O)NC(=O)[C@H](CCCCNC(=O)COCCOCCNC(=O)COCCOCCNC(=O)CC[C@H](NC(=O)CCCCCCCCCCCCCCCCCCC(=O)O)C(=O)O)NC(=O)[C@H](CC(C)C)NC(=O)[C@@H](NC(=O)[C@H](CO)NC(=O)[C@@H](NC(=O)[C@H](CC(=O)O)NC(=O)[C@H](CO)NC(=O)[C@@H](NC(=O)[C@H](Cc1ccccc1)NC(=O)[C@@H](NC(=O)CNC(=O)[C@H](CCC(=O)O)NC(=O)C(C)(C)NC(=O)[C@@H](N)Cc1c[nH]cn1)[C@@H](C)O)[C@@H](C)O)C(C)C)C(C)C)C(=O)N[C@@H](CCC(=O)O)C(=O)N[C@@H](Cc1c[nH]cn1)C(=O)N[C@@H](CC(C)C)C(=O)N[C@H](C(N)=O)C(C)C` [compound 138] (H-H[Aib]EGTFTSDVSVLK([AEEA-AEEA-γGlu-C20 diacid])EEA[Aib]LQRFLEHLV-NH2), the EC50 at GLP1R is 0.0126 nM; at SCTR it was 31.6 nM. On GLP1R, the “SCTR EC50/GLP1R EC50 ratio” value is 2569. Further, in data set [1], the “Turbidity (pH 7)” value stood at 0.09. For the same compound, the Fibril formation in data set [2] is 3306.

`CC[C@H](C)[C@H](NC(=O)C(C)(C)NC(=O)[C@H](C)NC(=O)[C@H](CCC(=O)O)NC(=O)[C@H](CCC(=O)O)NC(=O)[C@H](CCCCNC(=O)COCCOCCNC(=O)COCCOCCNC(=O)CC[C@H](NC(=O)CCCCCCCCCCCCCCCCCCC(=O)O)C(=O)O)NC(=O)[C@H](CC(C)C)NC(=O)[C@H](Cc1ccc(O)cc1)NC(=O)[C@H](CO)NC(=O)[C@@H](NC(=O)[C@H](CC(=O)O)NC(=O)[C@H](CO)NC(=O)[C@@H](NC(=O)[C@H](Cc1ccccc1)NC(=O)[C@@H](NC(=O)CNC(=O)[C@H](CCC(=O)O)NC(=O)C(C)(C)NC(=O)[C@@H](N)Cc1c[nH]cn1)[C@@H](C)O)[C@@H](C)O)C(C)C)C(=O)N[C@@H](CCC(N)=O)C(=O)N[C@@H](CCCNC(=N)N)C(=O)N[C@@H](Cc1ccccc1)C(=O)N[C@@H](CC(C)C)C(=O)N[C@@H](CCC(=O)O)C(=O)N[C@@H](Cc1c[nH]cn1)C(=O)N[C@@H](CC(C)C)C(=O)N[C@H](C(N)=O)C(C)C` [compound 139] (H-H[Aib]EGTFTSDVSYLK([AEEA-AEEA-γGlu-C20 diacid])EEA[Aib]IQRFLEHLV-NH2): on GLP1R, the EC50 was 0.00631 nM and the “SCTR EC50/GLP1R EC50 ratio” value came out at 21979. Moreover, the “Turbidity (pH 7)” value in data set [1] amounted to 0.09. For the same compound, the EC50 at SCTR is 126 nM. In data set [2], this compound gave a Fibril formation of 4010.

Turning to `CC(C)C[C@H](NC(=O)[C@H](Cc1ccccc1)NC(=O)[C@H](CCCNC(=N)N)NC(=O)[C@H](CCC(N)=O)NC(=O)[C@H](CC(C)C)NC(=O)C(C)(C)NC(=O)[C@H](C)NC(=O)[C@H](CCC(=O)O)NC(=O)[C@H](CCC(=O)O)NC(=O)[C@H](CCCCNC(=O)COCCOCCNC(=O)COCCOCCNC(=O)CC[C@H](NC(=O)CCCCCCCCCCCCCCCCCCC(=O)O)C(=O)O)NC(=O)[C@H](CC(C)C)NC(=O)[C@@H]1CCCN1C(=O)[C@H](CO)NC(=O)[C@@H](NC(=O)[C@H](CC(=O)O)NC(=O)[C@H](CO)NC(=O)[C@@H](NC(=O)[C@H](Cc1ccccc1)NC(=O)[C@@H](NC(=O)CNC(=O)[C@H](CCC(=O)O)NC(=O)C(C)(C)NC(=O)[C@@H](N)Cc1c[nH]cn1)[C@@H](C)O)[C@@H](C)O)C(C)C)C(=O)N[C@@H](CCC(=O)O)C(=O)N[C@@H](Cc1c[nH]cn1)C(=O)N[C@@H](CC(C)C)C(=O)N[C@H](C(N)=O)C(C)C` [compound 140] (H-H[Aib]EGTFTSDVSPLK([AEEA-AEEA-γGlu-C20 diacid])EEA[Aib]LQRFLEHLV-NH2), on GLP1R, the EC50 was 1.26 nM and the “SCTR EC50/GLP1R EC50 ratio” value is 14381. The “Turbidity (pH 7)” value in data set [1] turned out to be 0.08. Besides, the EC50 at SCTR is 20000 nM. Besides, in data set [2], the Fibril formation is reported as 2733.

`CC(C)C[C@H](NC(=O)[C@H](Cc1ccc(O)cc1)NC(=O)[C@H](CCCNC(=N)N)NC(=O)[C@H](CCC(N)=O)NC(=O)[C@H](CC(C)C)NC(=O)C(C)(C)NC(=O)[C@H](C)NC(=O)[C@H](CCC(=O)O)NC(=O)[C@H](CCC(=O)O)NC(=O)[C@H](CCCCNC(=O)COCCOCCNC(=O)COCCOCCNC(=O)CC[C@H](NC(=O)CCCCCCCCCCCCCCCCCCC(=O)O)C(=O)O)NC(=O)[C@H](CC(C)C)NC(=O)[C@H](Cc1ccc(O)cc1)NC(=O)[C@H](CO)NC(=O)[C@@H](NC(=O)[C@H](CC(=O)O)NC(=O)[C@H](CO)NC(=O)[C@@H](NC(=O)[C@H](Cc1ccccc1)NC(=O)[C@@H](NC(=O)CNC(=O)[C@H](CCC(=O)O)NC(=O)C(C)(C)NC(=O)[C@@H](N)Cc1c[nH]cn1)[C@@H](C)O)[C@@H](C)O)C(C)C)C(=O)N[C@@H](CCC(=O)O)C(=O)N[C@@H](Cc1c[nH]cn1)C(=O)N[C@@H](CC(C)C)C(=O)N[C@H](C(N)=O)C(C)C` [compound 141] (H-H[Aib]EGTFTSDVSYLK([AEEA-AEEA-γGlu-C20 diacid])EEA[Aib]LQRYLEHLV-NH2): the figures for the EC50 on GLP1R and at SCTR were 0.00398 nM and 251 nM, respectively. For the same compound, the “SCTR EC50/GLP1R EC50 ratio” value on GLP1R is 59910. Besides, in data set [1], the “Turbidity (pH 7)” value was found to be 0.08. This compound also yielded a Fibril formation in data set [2] of 3233.

The values are drawn from US20260201008A1, “SECRETIN-DERIVED GLP1R SELECTIVE AGONISTS” (GUBRA A/S, priority 2023, published 2026).
